# System: 422866-222-R5-J1-PDC spheroids with HUVEC/MSC, viability
# Experiment: Anticancer human tumor 422866-222-R5-J1-PDC patient-derived pancreatic adenocarcinoma cell line growth inhibition [GQUAD]
# Settings: for IC50: curve of first compound; for viability, T/C: stronger effect = lower value
# Procedure, shortened: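 Viability of tumor cells grown as complex spheroids with endothelial and stromal cells, exposed to drug combinations. Top concentration at or near clinical Cmax (else 10 microM), diluted in half-log increments.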
# [1] = second compound 0.0316 µM, first compound 0.000999 µM
# [2] = second compound 0.0316 µM, first compound 0.00316 µM
# [3] = second compound 0.0316 µM, first compound 0.00999 µM
# [4] = second compound 0.0316 µM, first compound 0.0316 µM
# [5] = second compound 0.0316 µM, first compound 0.0999 µM
# [6] = second compound 0.0316 µM, first compound 0.316 µM
# [7] = second compound 0.1 µM, first compound 0.000999 µM
# [8] = second compound 0.1 µM, first compound 0.00316 µM
# [9] = second compound 0.1 µM, first compound 0.00999 µM
# [10] = second compound 0.1 µM, first compound 0.0316 µM
# [11] = second compound 0.1 µM, first compound 0.0999 µM
# [12] = second compound 0.1 µM, first compound 0.316 µM
# [13] = second compound 0.316 µM, first compound 0.000999 µM
# [14] = second compound 0.316 µM, first compound 0.00316 µM
# [15] = second compound 0.316 µM, first compound 0.00999 µM
# [16] = second compound 0.316 µM, first compound 0.0316 µM
# [17] = second compound 0.316 µM, first compound 0.0999 µM
# [18] = second compound 0.316 µM, first compound 0.316 µM
# [19] = second compound 1 µM, first compound 0.000999 µM
# [20] = second compound 1 µM, first compound 0.00316 µM
# [21] = second compound 1 µM, first compound 0.00999 µM
# [22] = second compound 1 µM, first compound 0.0316 µM
# [23] = second compound 1 µM, first compound 0.0999 µM
# [24] = second compound 1 µM, first compound 0.316 µM
# [25] = second compound 3.16 µM, first compound 0.000999 µM
# [26] = second compound 3.16 µM, first compound 0.00316 µM
# [27] = second compound 3.16 µM, first compound 0.00999 µM
# [28] = second compound 3.16 µM, first compound 0.0316 µM
# [29] = second compound 3.16 µM, first compound 0.0999 µM
# [30] = second compound 3.16 µM, first compound 0.316 µM
# [31] = second compound 10 µM, first compound 0.000999 µM
# [32] = second compound 10 µM, first compound 0.00316 µM
# [33] = second compound 10 µM, first compound 0.00999 µM
# [34] = second compound 10 µM, first compound 0.0316 µM
# [35] = second compound 10 µM, first compound 0.0999 µM
# [36] = second compound 10 µM, first compound 0.316 µM
# 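Also: spheroids exposed to compounds for seven days before reading.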
# 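For viability, T/C in this document: percent viability relative to DMSO vehicle control taken as 100%.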
smiles,measurement,setting,value
CC[C@@]1(O)C(=O)OCc2c1cc1n(c2=O)Cc2cc3c(CN(C)C)c(O)ccc3nc2-1 + CN(C)c1ccc(Nc2c3ccc(NC(=O)CCN4CCCC4)cc3nc3cc(NC(=O)CCN4CCCC4)ccc23)cc1,IC50,second compound 0.0316 µM,0.0939 µM
same,IC50,second compound 0.1 µM,> 0.316 µM
same,IC50,second compound 0.316 µM,0.0899 µM
same,IC50,second compound 1 µM,0.135 µM
same,IC50,second compound 3.16 µM,0.0853 µM
same,IC50,second compound 10 µM,0.175 µM
same,"viability, T/C",[1],99.1%
same,"viability, T/C",[2],95.8%
same,"viability, T/C",[3],96%
same,"viability, T/C",[4],76%
same,"viability, T/C",[5],47.3%
same,"viability, T/C",[6],49.7%
same,"viability, T/C",[7],87.2%
same,"viability, T/C",[8],104%
same,"viability, T/C",[9],98%
same,"viability, T/C",[10],64.3%
same,"viability, T/C",[11],50.9%
same,"viability, T/C",[12],48.7%
same,"viability, T/C",[13],90.9%
same,"viability, T/C",[14],78.6%
same,"viability, T/C",[15],95.2%
same,"viability, T/C",[16],65.1%
same,"viability, T/C",[17],48.3%
same,"viability, T/C",[18],48.6%
same,"viability, T/C",[19],96.8%
same,"viability, T/C",[20],92.9%
same,"viability, T/C",[21],78.6%
same,"viability, T/C",[22],69.8%
same,"viability, T/C",[23],56.5%
same,"viability, T/C",[24],35.8%
same,"viability, T/C",[25],84.1%
same,"viability, T/C",[26],79.2%
same,"viability, T/C",[27],87.8%
same,"viability, T/C",[28],72.5%
same,"viability, T/C",[29],46.1%
same,"viability, T/C",[30],46.7%
same,"viability, T/C",[31],77.5%
same,"viability, T/C",[32],96.3%
same,"viability, T/C",[33],91.8%
same,"viability, T/C",[34],69.8%
same,"viability, T/C",[35],61.4%
same,"viability, T/C",[36],40.3%
CCc1c2c(nc3ccc(O)cc13)-c1cc3c(c(=O)n1C2)COC(=O)[C@]3(O)CC + CN(C)c1ccc(Nc2c3ccc(NC(=O)CCN4CCCC4)cc3nc3cc(NC(=O)CCN4CCCC4)ccc23)cc1,IC50,second compound 0.0316 µM,0.0068 µM
same,IC50,second compound 0.1 µM,0.049 µM
same,IC50,second compound 0.316 µM,0.00286 µM
same,IC50,second compound 1 µM,0.00241 µM
same,IC50,second compound 3.16 µM,0.11 µM
same,IC50,second compound 10 µM,> 0.316 µM
same,"viability, T/C",[1],64.9%
same,"viability, T/C",[2],54.1%
same,"viability, T/C",[3],46.6%
same,"viability, T/C",[4],46.7%
same,"viability, T/C",[5],48%
same,"viability, T/C",[6],47.1%
same,"viability, T/C",[7],63.6%
same,"viability, T/C",[8],46.9%
same,"viability, T/C",[9],46.7%
same,"viability, T/C",[10],57.1%
same,"viability, T/C",[11],57.8%
same,"viability, T/C",[12],39.2%
same,"viability, T/C",[13],77.5%
same,"viability, T/C",[14],47.2%
same,"viability, T/C",[15],46.4%
same,"viability, T/C",[16],55.1%
same,"viability, T/C",[17],50.5%
same,"viability, T/C",[18],37.3%
same,"viability, T/C",[19],54%
same,"viability, T/C",[20],43.4%
same,"viability, T/C",[21],45.2%
same,"viability, T/C",[22],57.1%
same,"viability, T/C",[23],46.8%
same,"viability, T/C",[24],40.5%
same,"viability, T/C",[25],58.6%
same,"viability, T/C",[26],54.3%
same,"viability, T/C",[27],40.6%
same,"viability, T/C",[28],48.5%
same,"viability, T/C",[29],63.6%
same,"viability, T/C",[30],43.9%
same,"viability, T/C",[31],58.4%
same,"viability, T/C",[32],49.7%
same,"viability, T/C",[33],58.3%
same,"viability, T/C",[34],50.8%
same,"viability, T/C",[35],64.5%
same,"viability, T/C",[36],41%
COc1cc(C2c3cc4c(cc3C(OC3OC5COC(C)OC5C(O)C3O)C3COC(=O)C23)OCO4)cc(OC)c1O (stereo unspecified) + CN(C)c1ccc(Nc2c3ccc(NC(=O)CCN4CCCC4)cc3nc3cc(NC(=O)CCN4CCCC4)ccc23)cc1,IC50,second compound 0.0316 µM,1.89 µM
same,IC50,second compound 0.1 µM,1.52 µM
same,IC50,second compound 0.316 µM,3.33 µM
same,IC50,second compound 1 µM,0.926 µM
same,IC50,second compound 3.16 µM,3.09 µM
same,IC50,second compound 10 µM,4.39 µM
same,"viability, T/C",[4],97.3%
same,"viability, T/C","second compound 0.0316 µM, first compound 0.1 µM",89%
same,"viability, T/C",[6],84.5%
same,"viability, T/C","second compound 0.0316 µM, first compound 1 µM",57.5%
same,"viability, T/C","second compound 0.0316 µM, first compound 3.16 µM",41.4%
same,"viability, T/C","second compound 0.0316 µM, first compound 10 µM",45.4%
same,"viability, T/C",[10],116%
same,"viability, T/C","second compound 0.1 µM, first compound 0.1 µM",86.6%
same,"viability, T/C",[12],70.9%
same,"viability, T/C","second compound 0.1 µM, first compound 1 µM",54.1%
same,"viability, T/C","second compound 0.1 µM, first compound 3.16 µM",40.9%
same,"viability, T/C","second compound 0.1 µM, first compound 10 µM",38.2%
same,"viability, T/C",[16],101%
same,"viability, T/C","second compound 0.316 µM, first compound 0.1 µM",92.9%
same,"viability, T/C",[18],73.8%
same,"viability, T/C","second compound 0.316 µM, first compound 1 µM",59.2%
same,"viability, T/C","second compound 0.316 µM, first compound 3.16 µM",50.7%
same,"viability, T/C","second compound 0.316 µM, first compound 10 µM",46.3%
same,"viability, T/C",[22],92%
same,"viability, T/C","second compound 1 µM, first compound 0.1 µM",79.4%
same,"viability, T/C",[24],63.9%
same,"viability, T/C","second compound 1 µM, first compound 1 µM",47.1%
same,"viability, T/C","second compound 1 µM, first compound 3.16 µM",44.4%
same,"viability, T/C","second compound 1 µM, first compound 10 µM",38.1%
same,"viability, T/C",[28],85.7%
same,"viability, T/C","second compound 3.16 µM, first compound 0.1 µM",76.2%
same,"viability, T/C",[30],65.9%
same,"viability, T/C","second compound 3.16 µM, first compound 1 µM",56.2%
same,"viability, T/C","second compound 3.16 µM, first compound 3.16 µM",49.9%
same,"viability, T/C","second compound 3.16 µM, first compound 10 µM",46%
same,"viability, T/C",[34],73.2%
same,"viability, T/C","second compound 10 µM, first compound 0.1 µM",80.8%
same,"viability, T/C",[36],67.1%
same,"viability, T/C","second compound 10 µM, first compound 1 µM",63.9%
same,"viability, T/C","second compound 10 µM, first compound 3.16 µM",55.9%
same,"viability, T/C","second compound 10 µM, first compound 10 µM",38.2%
